Test results reported in US6506555B1, “Use of HIV protease inhibiting compounds” (Institut National de la Sante et de la Recherche Medicale …, priority 1998, dated 2003).
Read-outs that look alike come from different tables or passages of the source.

Experiments:
cytotoxic T lymphocytes = assay type: in vivo, C57BL/6 mice; conditions: splenocytes eight days after i.v. LCMV-WE; EL4 cells sensitized with GP33-41 or NP peptide
CD8+ T lymphocytes = assay: Proliferation of the CD8+ T lymphocytes in vivo (FACS of splenocytes); parameters: species or system mice; conditions: 200 pfu LCMV-WE i.v., anti-CD8 FACS
[1] = system: ubiquitin proteasome pathway; assay: Degradation of the proteins with a short lifespan (35S pulse-chase); assay type: cell-based; conditions: cells cultured overnight with variable concentration
Procedure: For these analyses, the cells were cultured overnight in the presence of a variable concentration of ritonavir, preincubated in a medium free of methionine and cysteine for 1 hour, subjected to labelling with ^35S-methionine and ^35S-cysteine for one hour, washed in PBS and subjected to a chase for one hour. After one hour, TCA (trichloroacetic acid at 10% final) was added to the supernatant and the radioactivity of the supernatant not precipitated with TCA was quantified with a Lumaplate (Topcount Packard) (FIG. 4A).

[2] = Experimental allergic encephalitis in mice and transfer of protection; assay type: in vivo
Procedure: In this experiment, healthy recipient mice not treated with ritonavir received, by the intravenous and/or peritoneal route, cells of the lymph nodes and of the spleen obtained from donor mice treated with ritonavir and having been subjected to the protocol for induction of EAE described above in Example a) and adapted to mice.
The popliteal, inguinal and mesenteric ganglia and the spleen are removed at D10 after injection of MBP, cultured in the presence of 50 μg/ml of MBP. On the third day of culture, the nonadherent cells are recovered, passed over Ficoll and injected into the recipient mice (10×10^6 injected cells).

hepatitis C virus = assay: Clinical case: patient doubly infected with HIV and HCV treated with ritonavir; assay type: in vivo, human
Description: A patient who is a drug addict is monitored for a double infection with HIV and HCV, discovered in 1986 but undoubtedly prior to this date. The progression of the HIV infection is slow, with a viremia established at around 4 Log HIV RNA copies/ml. The level of CD4 T lymphocytes dropped with a first opportunistic lung infection. […] An HIV protease inhibitor, ritonavir, was introduced into the therapy of the patient and followed since then. The HIV viremia became undetectable during the two months which followed the beginning of the treatment before returning to the previous level from the fourth month. The level of CD4 T lymphocytes increased during this period and continued to increase even after the reappearance of the HIV viremia. By contrast, the HCV viremia became negative at the 7th month after the introduction of ritonavir (FIG. 7), and has remained so two years later.

MC57 fibroblasts (H-2b) = conditions: MC57 cells infected with LCMV, ritonavir 5 μg/ml for 36 hours
[3] = system: M113 cells presenting the MART-1 antigen; assay: Proliferation of M77-84 T lymphocytes stimulated by treated M113 cells
[4] = patients with hepatic cytolysis (cytolysis +)
[5] = patients without hepatic cytolysis (cytolysis −)

CC(C)c1nc(CN(C)C(=O)N[C@H](C(=O)N[C@@H](Cc2ccccc2)C[C@H](O)[C@H](Cc2ccccc2)NC(=O)OCc2cncs2)C(C)C)cs1 [ritonavir]
lysis of the target cells (direct lysis ex vivo after systemic infection) (cytotoxic T lymphocytes): reduced
proliferation of the CD8+ T lymphocytes in response to the LCMV virus (CD8+ T lymphocytes): Inhibition
degradation of proteins with a short lifespan [1]: inhibits in a dose-dependent manner
symptoms of EAE in recipient mice after transfer of cells from donor mice treated with ritonavir ([2]; 10×10^6 lymph node and spleen cells injected, EAE induction at D30 after the transfer): no symptom of EAE
EAE in mice treated with ritonavir ([2]; mouse, in vivo): Results similar to those described in rats
HCV viremia (hepatitis C virus; at the 7th month after introduction of ritonavir, remained so two years later): negative
HIV viremia (hepatitis C virus; during the two months after beginning of treatment, returned to previous level from the fourth month): undetectable
level of CD4 T lymphocytes (hepatitis C virus; one patient, during treatment): increased
lysis by the anti-LCMV cytotoxic T lymphocytes (MC57 fibroblasts (H-2b)): strongly inhibits
presentation of MART-1 antigen: proliferation of M77-84 T lymphocytes ([3]; M113 cells cultured 24 hours with 0.1-5 μg/ml, proliferation after 48 hours): inhibition
inhibition of proliferation ([3]; antigen presenting cells cultured in sera of HIV-negative volunteers obtained 3 hours after a single oral dose of 500 mg): Up to 70%
anti-HCV antibody titre (HCV; during the therapy): increases only in the patients exhibiting cytolysis
patients in whom the ALAT concentrations increased (HCV; patients coinfected with HCV and HIV): 57%
Ac index (variation of anti-HCV antibody titre, ratio of the optical densities) (HCV; [4]): 2.19(+/−1.68)
variation of CD4 (HCV; [4]): 109.4(+/−113) cells /mm^3
variation of CD8 (HCV; [4]): 203.6(+/−650) cells /mm^3
variation of HCV-VL (viral HCV load) (HCV; [4]): +0.61 log10 of copies of RNA/ml
variation of HCV-VL (viral HCV load) (HCV; patients with hepatic cytolysis (cytolysis +), listed as RTN): 0.61(+/−0.3) log10 of copies of RNA/ml
Ac index (variation of anti-HCV antibody titre, ratio of the optical densities) (HCV; [5]): 0.98(+/−0.24)
variation of CD4 (HCV; [5]): 88.3(+/−170) cells /mm^3
variation of CD8 (HCV; [5]): 281.8(+/−394) cells /mm^3
variation of HCV-VL (viral HCV load) (HCV; [5]): +0.22 log10 of copies of RNA/ml
variation of HCV-VL (viral HCV load) (HCV; patients without hepatic cytolysis (cytolysis −), listed as RTN): 0.22(+/−0.35) log10 of copies of RNA/ml
ALAT concentration peak, mean maximum value (HCV; ritonavir group, third month): 418 IU/1
ALAT concentration peak, variation (HCV; ritonavir group, third month): 96-1570 IU/1
